Results published in US5681821A, “Fluorescent 1-peptidylaminoalkanephosphonate derivatives” (Georgia Tech Research Corp., priority 1994, dated 1997).

Columns and labels:
chymotrypsin = chymotrypsin (Bos taurus, UniProt P00766); assay: Inactivation of chymotrypsin, incubation method; assay type: biochemical, bovine; conditions: for kobsd /(I) Chymotrypsin: 0.1 M Hepes, 0.5 M NaCl, pH 7.5, 5-10% Me2SO, 25° C., NI = no inhibition after 40 min of incubation
Protocol: (§1) Inactivation rates of serine proteases by fluorescent peptidylphosphonates were measured by the incubation method. In each case the inactivation experiment was preceded by an enzyme assay in which the hydrolysis of peptide p-nitroanilide substrates, catalyzed by chymotrypsin, PPE, HLE, and trypsin was measured in 0.1M Hepes and 0.5M NaCl (0.01M CaCl2 for trypsin), pH 7.5 buffer containing 5-10% Me2 SO at 25° C. Stock solutions of substrates were prepared in Me2 SO (20 mM) and stored at -20° C. Final substrate concentrations were 0.24 mM. Chymotrypsin activity was assayed with Suc-Val-Pro-Phe-NA. PPE was assayed with Suc-Ala-Ala-Ala-NA. HLE was assayed with MeO-Suc-Ala-Ala-Pro-Val-NA and trypsin was assayed with Z-Arg-NA. The initial rates of hydrolysis were measured at 410 nm (ε410 =8800 M^-1 cm^-1) on a Beckman 35 spectrophotometer after 25-50 μL of an enzyme stock solution was added to a cuvette containing 2.0 mL of buffer and 25 μL of substrate.
(§2) Each inhibition reaction was initiated by adding a 50 μL aliquot of inhibitor (100-5000 μM in Me2 SO) to 0.5 mL of a 0.1M Hepes, 0.5M NaCl (0.01M CaCl2 for trypsin), pH 7.5 buffer containing 50 μL of a stock enzyme solution at 25° C. The enzyme stock solutions were 20 μM chymotrypsin, trypsin, and PPE in 1 mM HCl (pH 3), and 0.4-4 μM HLE in 0.25M NaAc and 1M NaCl at pH 5.5. All the enzyme stock solutions were stored at -20° C. prior to use. Aliquots (25 μL) were withdrawn at various intervals and the residual enzymatic activity was measured spectrophotometrically as described above. Pseudo first-order inactivation rate constants (kobsd) were obtained from plots of ln vt /vo vs time and had correlation coefficients greater than 0.98. Each kobsd was calculated from 5-10 activity determinations which extended to 2-3 half lives. Control experiments were carried out in the same way as described above except Me2 SO was added in place of the inhibitor solution in Me2 SO. […] These initial rates were used as vo in the calculation of the inhibition rate constants.

[1] = molecular target: T1, porcine pancreatic elastase (PPE) (Sus scrofa, UniProt P00772); assay: Inactivation of PPE, incubation method; assay type: biochemical; conditions: 0.1 M Hepes, 0.5 M NaCl, pH 7.5, 5-10% Me2SO, 25° C.; NI = no inhibition after 40 min of incubation
T1 construct: purchased United States Biochemical Corp., Cleveland, Ohio
Protocol: as §1, §2

[2] = molecular target: T2, human leukocyte elastase (HLE) (Homo sapiens, UniProt P08246); assay: Inactivation of HLE, incubation method; assay type: biochemical; conditions: 0.1 M Hepes, 0.5 M NaCl, pH 7.5, 5-10% Me2SO, 25° C.; NI = no inhibition after 40 min of incubation
T2 construct: purchased Athens Research and Technology, Inc., Athens, Ga
T2 sequence (P08246 30-267): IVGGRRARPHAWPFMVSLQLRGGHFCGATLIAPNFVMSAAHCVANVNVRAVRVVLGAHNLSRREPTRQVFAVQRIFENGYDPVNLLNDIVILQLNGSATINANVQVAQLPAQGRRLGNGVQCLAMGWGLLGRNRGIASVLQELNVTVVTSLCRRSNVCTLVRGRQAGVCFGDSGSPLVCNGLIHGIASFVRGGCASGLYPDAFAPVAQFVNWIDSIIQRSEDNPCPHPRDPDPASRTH
Protocol: as §1, §2

RNK-16 cells = assay: Cell labeling and confocal imaging of NK line RNK-16; assay type: cell-based; conditions: live RNK-16 cells, 0.1 mM inhibitor, 30 minutes, 37° C., confocal microscopy
Protocol: Cell Labeling and Imaging. Cells of the NK line RNK-16 were labeled as live cells, washed, treated with methanol as a fixative and permeabilizing agent, and then examined by confocal microscopy. The cells were treated at 1×10^7 cells/mL in RPMI 1640 culture media (Sigma Chemical Co., St. Louis, Mo.) containing 10 mM Hepes with 0.1 mM FTC-Aca-Ala-Ala-Met^P (OPh)2 for 30 minutes at 37° C. Control cells were treated with the same volume of DMSO required to deliver the inhibitor (typically 1% final concentration). Cells were then washed several times with phosphate buffered saline (PBS) to remove excess inhibitor. They were suspended overnight in cold 80% methanol to permeabilize the membrane. The cells were washed free of MeOH into PBS and fixed onto poly-L-lysine (Sigma) coated microscope slides using 3% paraformaldehyde. Fixed slides were washed in PBS, coated with Vectashield (Vector Laboratories, Inc., Burlingame, Ca.) to prevent fluorescence fading and topped with a coverslip. Fluorescent laser scanning confocal microscopy was done with a Bio-Rad MRC 600 confocal system utilizing a Zeiss Axiophot microscope and equipped with a mixed-gas argon/krypton ion laser using 488 nm excitation for fluorescein.

RNK-16 chymase [3] = assay: Inactivation of RNK-16 granule chymase activity; assay type: biochemical; conditions: granule protease activity
Asp-ase granule protease = molecular target: T3, Asp-ase granule protease (Rattus norvegicus, UniProt P18291); assay: Inactivation of RNK-16 granule Asp-ase activity; assay type: biochemical; conditions: RNK-16 granule protease activity
T3 construct: endogenous in cells; host or cells: RNK-16
T3 sequence (P18291 21-248): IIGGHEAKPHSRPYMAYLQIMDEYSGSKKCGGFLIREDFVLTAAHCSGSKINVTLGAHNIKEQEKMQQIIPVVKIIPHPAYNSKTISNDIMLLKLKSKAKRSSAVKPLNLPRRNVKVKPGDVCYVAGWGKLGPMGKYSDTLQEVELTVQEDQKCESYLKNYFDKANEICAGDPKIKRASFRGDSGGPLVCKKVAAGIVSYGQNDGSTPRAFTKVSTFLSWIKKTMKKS

[4] = tested on: tryptase granule protease; assay: Inactivation of RNK-16 granule tryptase activity; assay type: biochemical; conditions: RNK-16 granule protease activity
RNK-16 chymase [5] = conditions: previous approach, comparison; cited from earlier work
[6] = tested on: tryptase granule protease; conditions: previous approach, comparison; cited from earlier work

T1 sequence (P00772 27-266): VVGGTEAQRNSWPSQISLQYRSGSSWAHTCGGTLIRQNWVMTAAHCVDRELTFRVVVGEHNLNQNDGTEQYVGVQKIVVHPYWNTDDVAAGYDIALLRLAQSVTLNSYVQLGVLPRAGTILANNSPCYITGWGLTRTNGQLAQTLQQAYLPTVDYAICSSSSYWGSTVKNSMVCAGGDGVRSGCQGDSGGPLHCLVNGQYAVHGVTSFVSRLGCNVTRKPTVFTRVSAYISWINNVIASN

Row | kobsd /(I) Chymotrypsin (chymotrypsin) | kobsd /(I) PPE [1] | kobsd /(I) HLE [2] | Molecule | also measured
1 | 190 M⁻¹ s⁻¹ | 13 M⁻¹ s⁻¹ | 22 M⁻¹ s⁻¹ | CSCCC(NC(=O)[C@H](C)NC(=O)[C@H](C)NC(=O)CCCCCNC(=S)Nc1ccc2c(c1)C(=O)OC21c2ccc(O)cc2Oc2cc(O)ccc21)P(=O)(Oc1ccccc1)Oc1ccccc1 (stereo partly drawn) [Compound 1, Diphenyl 1-(6-(5-Fluoresceinylthiocarbamoylamino)caproylalanylalanylamino)-3-(methylthio)propanephosphonate] | fluorescent labeling of cells (RNK-16 cells): reacted with distinct, granule-like regions; inactivation of RNK-16 chymase (RNK-16 chymase [3]): inactivated; inactivation of Asp-ase granule protease activity (Asp-ase granule protease): little; inactivation of tryptase granule protease activity [4]: little
2 |  | 22 M⁻¹ s⁻¹ |  | CC(NC(=O)[C@H](C)NC(=O)[C@H](C)NC(=O)CCCCCNC(=S)Nc1ccc2c(c1)C(=O)OC21c2ccc(O)cc2Oc2cc(O)ccc21)P(=O)(Oc1ccccc1)Oc1ccccc1 (stereo partly drawn) [Compound 2, Diphenyl 1-(6-(5-Fluoresceinylthiocarbamoylamino)caproylalanylalanylamino) ethanephosphonate] | 
3 |  | 16 M⁻¹ s⁻¹ |  | CC(C)C[C@H](NC(=O)[C@H](Cc1ccccc1)NC(=O)CCCCCNC(=S)Nc1ccc2c(c1)C(=O)OC21c2ccc(O)cc2Oc2cc(O)ccc21)C(=O)NC(Cc1ccccc1)P(=O)(Oc1ccccc1)Oc1ccccc1 (stereo partly drawn) [Compound 3, Diphenyl 1-(6-(5-Fluoresceinylthiocarbamoylamino)caproylphenylalanylleucylamino)-2-phenylethanephosphonate] | times faster inhibition of chymotrypsin than of HLE (chymotrypsin; ratio of kobsd/(I) chymotrypsin to HLE): 600
4 | 3 M⁻¹ s⁻¹ | 3 M⁻¹ s⁻¹ | 2 M⁻¹ s⁻¹ | CSCCC(NC(=O)[C@H](C)NC(=O)[C@H](C)NC(=O)OC(C)(C)C)P(=O)(Oc1ccccc1)Oc1ccccc1 (stereo partly drawn) [Compound 5, Boc-Ala-Ala-Met^P (OPh)2, reference compound] | 
5 |  | 30 M⁻¹ s⁻¹ |  | CC(NC(=O)[C@H](C)NC(=O)[C@H](C)NC(=O)OCc1ccccc1)P(=O)(Oc1ccccc1)Oc1ccccc1 (stereo partly drawn) [Compound 6, Z-Ala-Ala-Ala^P (OPh)2, reference compound] | 
6 | 110 M⁻¹ s⁻¹ |  | 27 M⁻¹ s⁻¹ | CC(C)C[C@H](NC(=O)[C@H](Cc1ccccc1)NC(=O)OCc1ccccc1)C(=O)NC(Cc1ccccc1)P(=O)(Oc1ccccc1)Oc1ccccc1 (stereo partly drawn) [Compound 7, Z-Phe-Leu-Phe^P (OPh)2, reference compound] | 
7 | 15 M⁻¹ s⁻¹ | 11 M⁻¹ s⁻¹ | 96 M⁻¹ s⁻¹ | Diphenyl 1-(6-(4(or 2)(9-(2,3,6,7,12,13,16,17-octahydro-1H,5H,11H,15H-xantheno(2,3,4-ij:5,6,7- i'j')diquinolizinyl-18-ium))3(or 5)sulfo-1-phenylsulfonamido)caproylphenylalanylleucylamino)-2-phenylethanephosphonate, Hydroxide, Inner Salt [Compound 4] | 
8 |  |  |  | soybean trypsin inhibitor: reversible serine protease inhibitor, macromolecular inhibitor (protein, UniProt P01070 25-205, looked up) Trypsin inhibitor A: DFVLDNEGNPLENGGTYYILSDITAFGGIRAAPTGNERCPLTVVQSRNELDKGIGTIISSPYRIRFIAEGHPLSLKFDSFAVIMLCVGIPTEWSVVEDLPEGPAVKIGENKDAMDGWFRLERVSDDEFNNYKLVFCPQQAEDDKCGDIGISIDHDDGTRRLVVSKNKPLVVQFQKLDKESL | inactivation of chymases of cytotoxic lymphocytes (RNK-16 chymase [5]): inactivated; inactivation of tryptases of cytotoxic lymphocytes [6]: inactivated
